Converted amounts (≈) assume the structure as drawn.

Experiment [1] has as its system Mycobacterium tuberculosis. Kind of experiment: Antimycobacterial activity against multi drug resistant Mycobacterium tuberculosis Praha 4 after 14 days by microdilution method. The conditions noted are these: Praha 4, 336 h. Background: Broth dilution looks for growth in wells or tubes with falling amounts of substance.
The test system of experiment [2] is Mycobacterium tuberculosis. Nature of the experiment: Antimycobacterial activity against multi drug resistant Mycobacterium tuberculosis 234/2005 after 21 days by microdilution method. The format is functional. To be noted: 234/2005, 504 h.
Experiment [3] concerns Mycobacterium tuberculosis. Kind of experiment: Antimycobacterial activity against multi drug resistant Mycobacterium tuberculosis Praha 1 after 21 days by microdilution method. To be noted: Praha 1, 504 h. The format is functional.
Experiment [4] concerns Mycobacterium tuberculosis. Kind of experiment: Antimycobacterial activity against multi drug resistant Mycobacterium tuberculosis Praha 4 after 21 days by microdilution method. The conditions noted are these: Praha 4, 504 h. The format is functional.
The test system of experiment [5] is Mycobacterium tuberculosis. Nature of the experiment: Antimycobacterial activity against multi drug resistant Mycobacterium tuberculosis 9449/2007 after 21 days by microdilution method. The format is functional. To be noted: 9449/2007, 504 h.
In experiment [6] the test system is Mycobacterium tuberculosis. Kind of experiment: Antimycobacterial activity against multi drug resistant Mycobacterium tuberculosis Praha 131 after 21 days by microdilution method. The format is functional. The conditions noted are these: Praha 131, 504 h.
Experiment [7] relates to Mycobacterium tuberculosis. Kind of experiment: microbe, parasite or virus in culture. The conditions noted are these: 234/2005, 336 h.
In experiment [8] the test system is Mycobacterium tuberculosis. Kind of experiment: Antimycobacterial activity against multi drug resistant Mycobacterium tuberculosis 8666/2010 after 21 days by microdilution method. The format is functional. The conditions noted are these: 8666/2010, 504 h.
Experiment [9] has as its system Mycobacterium tuberculosis. Nature of the experiment: Antimycobacterial activity against multi drug resistant Mycobacterium tuberculosis Praha 1 after 14 days by microdilution method. The conditions noted are these: for MIC99: Praha 1, 336 h. The format is functional.
In experiment [10] the test system is Mycobacterium tuberculosis. Kind of experiment: Antimycobacterial activity against multi drug resistant Mycobacterium tuberculosis Praha 131 after 14 days by microdilution method. The conditions noted are these: for MIC99: Praha 131, 336 h. The format is functional.
Experiment [11] deals with Mycobacterium tuberculosis. Nature of the experiment: Antimycobacterial activity against multi drug resistant Mycobacterium tuberculosis 9449/2007 after 14 days by microdilution method. The format is functional. To be noted: for MIC99: 9449/2007, 336 h.
Experiment [12] relates to Mycobacterium tuberculosis. Nature of the experiment: Antimycobacterial activity against multi drug resistant Mycobacterium tuberculosis 8666/2010 after 14 days by microdilution method. The format is functional. The conditions noted are these: for MIC99: 8666/2010, 336 h.

Turning to `COc1ccc(-c2nnc(SCc3cc([N+](=O)[O-])cc([N+](=O)[O-])c3)s2)cc1`, the MIC99 in experiment [1] was 0.125 µM (≈ 0.0506 µg/mL); in experiment [2] it was 0.25 µM (≈ 0.101 µg/mL); in experiment [3] it was 0.25 µM (≈ 0.101 µg/mL); in [4] it was 0.25 µM (≈ 0.101 µg/mL); in experiment [5], 0.25 µM (≈ 0.101 µg/mL); in [6] it was 0.25 µM (≈ 0.101 µg/mL). Besides, the MIC99 in experiment [7] amounted to 0.125 µM (≈ 0.0506 µg/mL); in experiment [8] it was 0.125 µM (≈ 0.0506 µg/mL); in [9] it was 0.125 µM (≈ 0.0506 µg/mL); in experiment [10] it was 0.125 µM (≈ 0.0506 µg/mL); in [11], 0.125 µM (≈ 0.0506 µg/mL); in experiment [12], 0.06 µM (≈ 0.0243 µg/mL).
Take GENTAMICIN: the MIC>99 in [9] was 1 µM; in experiment [10], over 8 µM; in experiment [11] it was 1 µM; in [12], 2 µM.
For `O=[N+]([O-])c1cc(CSc2nnc(-c3ccccc3)o2)cc([N+](=O)[O-])c1`, the MIC99 in [1], in experiment [7], in experiment [10] and in [12] was at most 0.03 µM in each case.
`CC1COc2c(N3CCN(C)CC3)c(F)cc3c(=O)c(C(=O)O)cn1c23` (stereo unspecified) [OFLOXACIN] had an MIC99 in [1] of over 16 µM.
In turn, `NCC[C@H](O)C(=O)N[C@@H]1C[C@H](N)[C@@H](O[C@H]2O[C@H](CN)[C@@H](O)[C@H](O)[C@H]2O)[C@H](O)[C@H]1O[C@H]1O[C@H](CO)[C@@H](O)[C@H](N)[C@H]1O` [AMIKACIN] gave an MIC99 in [10] of over 32 µM.
`CN[C@@H]1[C@H](O[C@H]2[C@H](O[C@H]3[C@H](O)[C@@H](O)[C@H](N=C(N)N)[C@@H](O)[C@@H]3N=C(N)N)O[C@@H](C)[C@]2(O)C=O)O[C@@H](CO)[C@H](O)[C@H]1O` [STREPTOMYCIN]: the MIC99 in experiment [1], in [10], in experiment [11] and in [12] was over 32 µM in each case.
Regarding `COc1ccc(-c2nnc(SCc3cc([N+](=O)[O-])cc([N+](=O)[O-])c3)o2)cc1`, the MIC99 in [1], in experiment [7], in [8], in experiment [9], in experiment [10] and in experiment [11] was 0.06 µM (≈ 0.0233 µg/mL) in each case. The compound further came in with an MIC99 in experiment [12] of 0.06 µM (≈ 0.0233 µg/mL).
With `CO[C@H]1/C=C/O[C@@]2(C)Oc3c(C)c(O)c4c(O)c(c(/C=N/N5CCN(C)CC5)c(O)c4c3C2=O)NC(=O)/C(C)=C\C=C\[C@H](C)[C@H](O)[C@@H](C)[C@@H](O)[C@@H](C)[C@H](OC(C)=O)[C@@H]1C` [RIFAMPIN], the MIC99 in experiment [1], in experiment [7], in [9], in experiment [10], in experiment [11] and in experiment [12] was over 8 µM throughout.
Turning to `O=[N+]([O-])c1cc(CSc2nnc(-c3ccc(Cl)cc3)s2)cc([N+](=O)[O-])c1`, the MIC99 was determined as 0.25 µM (≈ 0.102 µg/mL) in experiment [1]; 0.5 µM (≈ 0.204 µg/mL) in [2]; 0.5 µM (≈ 0.204 µg/mL) in [3]; 0.5 µM (≈ 0.204 µg/mL) in experiment [4]; 0.5 µM (≈ 0.204 µg/mL) in [5]; 0.5 µM (≈ 0.204 µg/mL) in experiment [6]. For the same compound, the MIC99 worked out at 0.5 µM (≈ 0.204 µg/mL) in experiment [7]; 0.5 µM (≈ 0.204 µg/mL) in [8]; 0.25 µM (≈ 0.102 µg/mL) in experiment [9]; 0.5 µM (≈ 0.204 µg/mL) in experiment [10]; 0.25 µM (≈ 0.102 µg/mL) in experiment [11]; 0.25 µM (≈ 0.102 µg/mL) in experiment [12].

The record behind these values is ChEMBL document CHEMBL3797190, “Development of 3,5-Dinitrobenzylsulfanyl-1,3,4-oxadiazoles and Thiadiazoles as Selective Antitubercular Agents Active Against Replicating and Nonreplicating Mycobacterium tuberculosis” (J Med Chem, 2016).
